Assay results: a melting point compilation (Tetko et al.; mined from patent text by program, amines drawn as free bases though some values may be those of a salt)

SMILES	melting point [°C]
CCCCC[C@H]1CC[C@H](c2ccc(-c3ccc(C#N)cc3)cc2)CC1	93
COCCCN(C(=O)N(CCCl)N=O)C1(O)COC(OCC(C)C)C(O)C1O (centres undefined)	67 to 69
COc1ccc(Sc2[nH]c3cccc4c3c2CC2C4C=C(C)CN2C)cc1 (centres undefined)	> 250
O=C1Cc2c(cccc2N(CCN(Cc2ccccc2)C(=O)C(F)(F)F)C(=O)C(F)(F)F)N1	108 to 111
CNS(=O)(=O)Oc1ccc2c(c1)C(C)(C)C(N1CCOCC1)O2 (centres undefined)	129 to 131
CCOC(=O)c1cn(CC(F)(F)F)c2cc3c(cc2c1=O)OCO3	204 to 206
CCCCOc1ccc(CCCCCCCCC(=O)O)cc1	45 to 48
Cc1ccc2c(c1)c(Cc1nc3cc(C(F)(F)F)ccc3s1)cn2CC(=O)O	248 to 249
CC(C)CCc1ccc(C(=S)CC#N)cc1	62 to 63
CCc1c(CC(=O)NCCCCCCNC(=O)Cc2ccc(OC)cc2)ccc(OC)c1OC	123 to 125
COC(=O)C[C@H]1C[C@@H](C=Cc2ccccc2)OC(C)(C)O1 (relative stereo)	84 to 86.5
CCCCCCCCCCC1=C(O)C(=O)NC1=O	109 to 111
CCCN1Cc2c(Cl)nc(Cl)nc2N1	80 to 84
COc1ccc(C(=O)/C=C/N(C)C)cc1COC(=O)C(C)(C)C	82 to 84
O=C(O)C1=Cc2c(F)ccc(Br)c2OC1C(F)(F)F (centres undefined)	222 to 223
O=C(NCC(=O)N(c1ccccc1)c1ccccc1)c1ccc2ccccc2c1	205
CN1CCC(N(C)c2ncc3ncnc(Nc4ccc(Cl)c([N+](=O)[O-])c4)c3n2)CC1	210 to 215
C#CCNC(=O)c1ncn2c1[C@@H]1CCCN1Cc1c(Cl)cccc1-2	233 to 235
O=C1CCCc2ccc(OCCCCN3CCN(c4cccc5c4OCCCO5)CC3)nc2N1	200 to 201
CN(C)C=Nc1c(C#N)c(=O)n(C)c(=O)n1C	174 to 175
Nc1nc(N)nc(-c2ccc(OCc3ccc(Cl)cc3)cc2)n1	246 to 248
CCc1ccc(C(CC(=O)O)C(=O)O)s1 (centres undefined)	165 to 166
CCCCCCCCC(SCCCCCC)C(=O)Nc1c(SC)nc(C)nc1SC (centres undefined)	95 to 97.5
CN1CCN(c2cc3ccccc3cn2)CC1	93 to 94

SMILES	melting point [°C]
COc1ccc2cccc(N3C(=O)CNCC3=O)c2c1	232
O=C(COc1cc(-c2ccccc2)nc2ccccc12)N1CCOCC1	145
N#CC1(C#N)CCOCC1	110 to 112
Cc1c(C)c2c(c(C)c1N)CC(C)(CN1CCC(OCC=Cc3ccccc3)CC1)O2 (centres undefined)	77 to 79
Cc1nnc2n1-c1sc(CCc3ccc(-c4ccccc4)cc3)cc1C(c1ccccc1Cl)=NC2	163 to 165
O=c1[nH]c2cccc(OCCNCc3ccccc3)c2[nH]1	132 to 135
C(=Cc1ccc2nc(-c3ccccc3)oc2c1)c1ccc(-c2nc3ccccc3o2)cc1	233 to 237
N#Cc1csc2ccccc12	67 to 69
Cc1nn(-c2ccc(C#N)c(Cl)c2)c(C)c1Oc1ccc(NC(=O)C(C)(C)C)cn1	191 to 192
O=C1C[C@@H](C(=O)O)N(C(=O)OCc2ccccc2)C1	99 to 101
O=C1Nc2cccc(Cl)c2C1(O)c1cc2c(cc1O)OCO2 (centres undefined)	250 to 253
CSc1nc(Oc2ccccc2)c(C(=O)O)c(Oc2ccccc2)n1	97 to 98
OC1(c2ccccc2)C(c2ccccc2)SC2=NCCCCN21 (centres undefined)	100 to 103
N#Cc1[nH]c(-c2ccc(Cl)cc2)c(S(=O)(=O)C(F)(F)F)c1Br	170 to 185
Cc1nc2c(Br)cc(Br)cn2c1C	> 90
CCOC(=O)c1cnn(-c2ccc(Cl)cc2C(F)(F)F)c1Cl	67 to 69
Cc1cccc(Nc2nncc3ccccc23)c1	176 to 177
O=C(N[C@H](Cc1ccc(C(F)(F)F)cc1)[C@H](O)c1ccc(F)cc1)c1cccc2ccccc12 (racemic)	134 to 135
OCC1(c2ccccc2)COc2ccccc2O1 (centres undefined)	114 to 116
CCCCCCCCCCCCCCCCCC(=O)Oc1ccccc1C(=O)OCC	50.5 to 53.5
CCC1C=C2NC(=O)CC[C@]2(C)[C@H]2CC[C@]3(C)[C@@H]([C@H](C)CCCC(C)C)CC[C@H]3[C@H]12 (some centres undefined)	147 to 149
COc1ccc(OC)c(Sc2ncccc2C(=O)NCC23CC4CC(CC(C4)C2)C3)c1	135 to 136
Cc1ccn2cc(CCc3ccc4nc(N=CN(C)C)oc4c3)nc2c1	150 to 151

Further lines, results first:

melting point [°C]	SMILES
85.5 to 88	COC(=O)C(Oc1ccc(C(C)(C)C)cc1Cl)c1ccc(Oc2ccc(Cl)cc2)cc1 (centres undefined)
60 to 85	CN(Cc1ccccc1)c1c(-c2ccc(S(C)(=O)=O)cc2)cnn(-c2cccc(Cl)c2)c1=O
80 to 83	Cc1ccc(S(=O)(=O)N2CCC[C@H]2C(=O)N[C@@H](Cc2ccc(OCCCN3CCN(C)CC3)cc2)C(=O)O)cc1
175 to 176	CC(=O)n1c2ccccc2c2ccc(C(=O)CCl)cc21
96 to 101	Cc1noc(NS(=O)(=O)c2cc(OCc3ccccc3)ccc2-c2ccc(CC(C)C)cc2)c1C
135 to 137	CCCCc1nn(-c2cc(NC(=O)CC)ccc2Cl)c(=O)n1Cc1ccc(-c2ccccc2S(N)(=O)=O)cc1F
136	COc1ccc2c(c1Cl)Sc1ccccc1N2C(C)=O
172 to 175	Cc1cccc(NC(=O)NC2N=C(N3CCCCCC3)c3ccccc3N(C)C2=O)c1 (single isomer, unassigned; (+))
115 to 117	COC(=O)CC(C)(C)C(=O)c1ccc2c(c1)CC(N1C(=O)c3ccccc3C1=O)C2 (centres undefined)
135 to 136	COC(=O)c1ccc(OCC2COC(=O)N2c2ccc(Cl)cc2)cc1 (centres undefined)
133 to 136	O=[N+]([O-])c1oc2c(CCO)cccc2c1-c1ccccc1
> 300	O=C(Nc1ccc2ncnc(Nc3cc(Cl)c(Cl)cc3F)c2c1)C(Cl)Cl
113 to 115	CNC(=O)N1CCC(c2nn(-c3ccc(F)cc3)c3ccccc23)CC1
202	CCc1nc2c(N)nc3ccccc3c2n1CCCCNC(=O)C1CCCCC1
129 to 130	CN1C(=O)CCC2(C)c3ccc(SCc4cc5ccccc5cn4)cc3CCC12 (single isomer, unassigned; (+))
200 to 202	CS(=O)(=O)Nc1ccc(CC(NC(=O)C(c2ccccc2)c2ccccc2)c2ccccc2)cc1 (centres undefined)
189 to 190	O=C(CCC1CCN(Cc2ccccc2)CC1)c1ccc(Nc2ncnc3c2CCC3O)cc1 (centres undefined)
179 to 181	COc1ccc(-n2nc(-c3ccccc3O)nc2-c2ccccc2O)cc1
75 to 76	CCOC(=O)C=Cc1ccc(OCCCCOCc2ccccc2)nc1NC(=O)C(C)(C)C
260 to 263	CCn1ncc2c(NCc3cccc(OC)c3)c3ccccc3nc21
164 to 166	CS(=O)(=O)c1ccc(-c2cc(C(=O)CCCO)nn2-c2ccc(F)cc2)cc1
54 to 55	CCCCOc1cc(C(CC(=O)OC)N2C(=O)c3ccccc3C2=O)ccc1OC (centres undefined)
